The target in one test is FXR (Homo sapiens (Human), UniProt Q96RI1). The test is described as follows: transient human FXR/Gal4-luciferase reporter assay. In kind it is cell-based.
FXR, sequence (Q96RI1 262-486): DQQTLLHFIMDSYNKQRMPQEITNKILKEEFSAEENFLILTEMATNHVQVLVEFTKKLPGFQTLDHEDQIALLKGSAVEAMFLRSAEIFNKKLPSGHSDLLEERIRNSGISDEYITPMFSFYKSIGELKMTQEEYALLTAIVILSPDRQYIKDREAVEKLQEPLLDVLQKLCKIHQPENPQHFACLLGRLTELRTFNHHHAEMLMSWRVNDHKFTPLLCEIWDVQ
Conditions: not given
The procedure, abridged: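 Compound exposure ran overnight at 37 °C and activity was measured as luminescence with Steady-Glo reagent. The cells were a HEK293 line stably expressing firefly luciferase under five Gal4 response elements. They were transiently transfected, one night beforehand, with a plasmid encoding Gal4 DNA-binding domain fused to the human FXR ligand-binding domain.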
On to `CS(=O)(=O)Nc1ccc(-c2cccc(N(CC34CCC(c5noc(C(F)F)n5)(CC3)CC4)C(=O)C34CC(F)(C3)C4)c2)cc1` [Example 460, N-((4-(5-(difluoromethyl)-1,2,4-oxadiazol-3-yl)bicyclo[2.2.2]octan-1-yl)methyl)-3-fluoro-N-(4′-(methylsulfonamido)-[1,1′-biphenyl]-3-yl)bicyclo[1.1.1]pentane-1-carboxamide], for which the 50% effective concentration (EC50) turned out to be 338 nM.

On to `CCOc1ccc(-c2cccc(N(CC34CCC(c5noc(C(F)F)n5)(CC3)CC4)C(=O)C34CC(F)(C3)C4)c2)cc1` [Example 461, N-((4-(5-(difluoromethyl)-1,2,4-oxadiazol-3-yl)bicyclo[2.2.2]octan-1-yl)methyl)-N-(4′-ethoxy-[1,1′-biphenyl]-3-yl)-3-fluorobicyclo[1.1.1]pentane-1-carboxamide], for which a half-maximal effect (EC50) was put at 603 nM.

In the case of `Cc1nc2ccc(-c3cccc(N(CC45CCC(c6noc(C(F)F)n6)(CC4)CC5)C(=O)C45CC(F)(C4)C5)c3)cc2s1` [Example 462, N-((4-(5-(difluoromethyl)-1,2,4-oxadiazol-3-yl)bicyclo[2.2.2]octan-1-yl)methyl)-3-fluoro-N-(3-(2-methylbenzo[d]thiazol-6-yl)phenyl)bicyclo[1.1.1]pentane-1-carboxamide], the EC50 turned out to be 107 nM.

With `O=C(N(CC12CCC(c3noc(C(F)F)n3)(CC1)CC2)c1cccc(-c2cnc(C3CC3)nc2)c1)C12CC(F)(C1)C2` [Example 463, N-(3-(2-cyclopropylpyrimidin-5-yl)phenyl)-N-((4-(5-(difluoromethyl)-1,2,4-oxadiazol-3-yl)bicyclo[2.2.2]octan-1-yl)methyl)-3-fluorobicyclo[1.1.1]pentane-1-carboxamide], the 50% effective concentration (EC50) was 215 nM.

In turn, `O=C(N(CC12CCC(c3noc(C(F)F)n3)(CC1)CC2)c1cccc(-c2cnc(C(F)(F)F)nc2)c1)C12CC(F)(C1)C2` [Example 464, N-((4-(5-(difluoromethyl)-1,2,4-oxadiazol-3-yl)bicyclo[2.2.2]octan-1-yl)methyl)-3-fluoro-N-(3-(2-(trifluoromethyl)pyrimidin-5-yl)phenyl)bicyclo[1.1.1]pentane-1-carboxamide] displayed an EC50 of 654 nM.

`O=C(N(CC12CCC(c3noc(C(F)F)n3)(CC1)CC2)c1cccc(-c2ccc(OC(F)F)cc2)c1)C12CC(F)(C1)C2` [Example 465, N-(4′-(difluoromethoxy)-[1,1′-biphenyl]-3-yl)-N-((4-(5-(difluoromethyl)-1,2,4-oxadiazol-3-yl)bicyclo[2.2.2]octan-1-yl)methyl)-3-fluorobicyclo[1.1.1]pentane-1-carboxamide] gave a 50% effective concentration (EC50) of 180 nM.

In turn, `O=C(N(CC12CCC(c3nc(C(F)F)no3)(CC1)CC2)c1cccc(-c2cnc(C(F)(F)F)nc2)c1)C12CC(F)(C1)C2` [Example 467, N-((4-(3-(difluoromethyl)-1,2,4-oxadiazol-5-yl)bicyclo[2.2.2]octan-1-yl)methyl)-3-fluoro-N-(3-(2-(trifluoromethyl)pyrimidin-5-yl)phenyl)bicyclo[1.1.1]pentane-1-carboxamide] yielded a concentration for a half-maximal effect (EC50) of 2110 nM.

Take `O=C(N(CC12CCC(c3nc(C(F)F)no3)(CC1)CC2)c1cccc(-c2ccc(OC(F)F)cc2)c1)C12CC(F)(C1)C2` [Example 468, N-(4′-(difluoromethoxy)-[1,1′-biphenyl]-3-yl)-N-((4-(3-(difluoromethyl)-1,2,4-oxadiazol-5-yl)bicyclo[2.2.2]octan-1-yl)methyl)-3-fluorobicyclo[1.1.1]pentane-1-carboxamide]: the half-maximal effective concentration (EC50) came out at 184 nM.

In the case of `CS(=O)(=O)Nc1ccc(-c2cccc(N(CC34CCC(c5nc(C(F)F)no5)(CC3)CC4)C(=O)C34CC(F)(C3)C4)c2)cc1` [Example 469, N-((4-(3-(difluoromethyl)-1,2,4-oxadiazol-5-yl)bicyclo[2.2.2]octan-1-yl)methyl)-3-fluoro-N-(4′-(methylsulfonamido)-[1,1′-biphenyl]-3-yl)bicyclo[1.1.1]pentane-1-carboxamide], a half-maximal effect (EC50) was put at 654 nM.

Take `CCOc1ncc(-c2cccc(N(CC34CCC(c5nc(C(F)F)no5)(CC3)CC4)C(=O)C34CC(F)(C3)C4)c2)cn1` [Example 470, N-((4-(3-(difluoromethyl)-1,2,4-oxadiazol-5-yl)bicyclo[2.2.2]octan-1-yl)methyl)-N-(3-(2-ethoxypyrimidin-5-yl)phenyl)-3-fluorobicyclo[1.1.1]pentane-1-carboxamide]: a half-maximal effect (EC50) was put at 164 nM.

The same test, now with this note: Gal4-hFXR fusion construct, HEK293 reporter cells; response relative to 8 μM GW-4064.
`CC(C)S(=O)(=O)Nc1ccc(-c2cccc(N(CC34CCC(c5noc(C(C)(C)C)n5)(CC3)CC4)C(=O)C34CC(F)(C3)C4)c2)cc1` [Example 448, N-((4-(5-(tert-butyl)-1,2,4-oxadiazol-3-yl)bicyclo[2.2.2]octan-1-yl)methyl)-3-fluoro-N-(4′-((1-methylethyl)sulfonamido)-[1,1′-biphenyl]-3-yl)bicyclo[1.1.1]pentane-1-carboxamide] displayed an EC50 of 277 nM.

The molecule `Cc1nc2ncc(-c3cccc(N(CC45CCC(c6noc(C(C)(C)C)n6)(CC4)CC5)C(=O)C45CC(F)(C4)C5)c3)cc2s1` [Example 449, N-((4-(5-(tert-butyl)-1,2,4-oxadiazol-3-yl)bicyclo[2.2.2]octan-1-yl)methyl)-3-fluoro-N-(3-(2-methylthiazolo[4,5-b]pyridin-6-yl)phenyl)bicyclo[1.1.1]pentane-1-carboxamide] gave an EC50 of 98 nM.

On to `COc1cnc(-c2cccc(N(CC34CCC(c5noc(C(C)(C)C)n5)(CC3)CC4)C(=O)C34CC(F)(C3)C4)c2)nc1` [Example 450, N-((4-(5-(tert-butyl)-1,2,4-oxadiazol-3-yl)bicyclo[2.2.2]octan-1-yl)methyl)-3-fluoro-N-(3-(5-methoxypyrimidin-2-yl)phenyl)bicyclo[1.1.1]pentane-1-carboxamide], for which the EC50 was found to be 68 nM.

Turning to `CCOc1cnc(-c2cccc(N(CC34CCC(c5noc(C(C)(C)C)n5)(CC3)CC4)C(=O)C34CC(F)(C3)C4)c2)nc1` [Example 451, N-((4-(5-(tert-butyl)-1,2,4-oxadiazol-3-yl)bicyclo[2.2.2]octan-1-yl)methyl)-N-(3-(5-ethoxypyrimidin-2-yl)phenyl)-3-fluorobicyclo[1.1.1]pentane-1-carboxamide], the EC50 was 47 nM.

In the case of `CC(C)(C)c1nc(C23CCC(CN(C(=O)C45CC(F)(C4)C5)c4cccc(-c5ncc(OC(F)F)cn5)c4)(CC2)CC3)no1` [Example 452, N-((4-(5-(tert-butyl)-1,2,4-oxadiazol-3-yl)bicyclo[2.2.2]octan-1-yl)methyl)-N-(3-(5-(difluoromethoxy)pyrimidin-2-yl)phenyl)-3-fluorobicyclo[1.1.1]pentane-1-carboxamide], the EC50 stood at 17 nM.

`CCc1cnc(-c2cccc(N(CC34CCC(c5noc(C(C)(C)C)n5)(CC3)CC4)C(=O)C34CC(F)(C3)C4)c2)nc1` [Example 453, N-((4-(5-(tert-butyl)-1,2,4-oxadiazol-3-yl)bicyclo[2.2.2]octan-1-yl)methyl)-N-(3-(5-ethylpyrimidin-2-yl)phenyl)-3-fluorobicyclo[1.1.1]pentane-1-carboxamide] had a 50% effective concentration (EC50) of 34 nM.

As for `Cc1cnc(-c2cccc(N(CC34CCC(c5noc(C(C)(C)C)n5)(CC3)CC4)C(=O)C34CC(F)(C3)C4)c2)nc1` [Example 454, N-((4-(5-(tert-butyl)-1,2,4-oxadiazol-3-yl)bicyclo[2.2.2]octan-1-yl)methyl)-3-fluoro-N-(3-(5-methylpyrimidin-2-yl)phenyl)bicyclo[1.1.1]pentane-1-carboxamide], the EC50 was found to be 31 nM.

`CC(C)(C)c1nc(C23CCC(CN(C(=O)C45CC(F)(C4)C5)c4cccc(-c5ccc(OC(F)F)cn5)c4)(CC2)CC3)no1` [Example 455, N-((4-(5-(tert-butyl)-1,2,4-oxadiazol-3-yl)bicyclo[2.2.2]octan-1-yl)methyl)-N-(3-(5-(difluoromethoxy)pyridin-2-yl)phenyl)-3-fluorobicyclo[1.1.1]pentane-1-carboxamide]: it took 17 nM to reach a half-maximal effect (EC50).

`CCc1ccc(-c2cccc(N(CC34CCC(c5noc(C(C)(C)C)n5)(CC3)CC4)C(=O)C34CC(F)(C3)C4)c2)cc1` [Example 456, N-((4-(5-(tert-butyl)-1,2,4-oxadiazol-3-yl)bicyclo[2.2.2]octan-1-yl)methyl)-N-(4′-ethyl-[1,1′-biphenyl]-3-yl)-3-fluorobicyclo[1.1.1]pentane-1-carboxamide] showed a half-maximal effective concentration (EC50) of 106 nM.

Molecule `CC(C)(C)c1nc(C23CCC(CN(C(=O)C45CC(F)(C4)C5)c4cccc(-c5ccc6c(c5)OC(F)(F)O6)c4)(CC2)CC3)no1` [Example 457, N-((4-(5-(tert-butyl)-1,2,4-oxadiazol-3-yl)bicyclo[2.2.2]octan-1-yl)methyl)-N-(3-(2,2-difluorobenzo[d][1,3]dioxol-5-yl)phenyl)-3-fluorobicyclo[1.1.1]pentane-1-carboxamide] came in with an EC50 of 144 nM.

In turn, `CC(C)(C)c1nc(C23CCC(CN(C(=O)C45CC(F)(C4)C5)c4cccc(-c5cnc6nc(C7CC7)sc6c5)c4)(CC2)CC3)no1` [Example 458, N-((4-(5-(tert-butyl)-1,2,4-oxadiazol-3-yl)bicyclo[2.2.2]octan-1-yl)methyl)-N-(3-(2-cyclopropylthiazolo[4,5-b]pyridin-6-yl)phenyl)-3-fluorobicyclo[1.1.1]pentane-1-carboxamide] registered a 50% effective concentration (EC50) of 251 nM.

As for `CCOc1ncc(-c2cccc(N(CC34CCC(c5noc(C(F)F)n5)(CC3)CC4)C(=O)C34CC(F)(C3)C4)c2)cn1` [Example 459, N-((4-(5-(difluoromethyl)-1,2,4-oxadiazol-3-yl)bicyclo[2.2.2]octan-1-yl)methyl)-N-(3-(2-ethoxypyrimidin-5-yl)phenyl)-3-fluorobicyclo[1.1.1]pentane-1-carboxamide], it took 192 nM to reach a half-maximal effect (EC50).

`O=C(N(CC12CCC(c3nc(C(F)F)no3)(CC1)CC2)c1cccc(-c2cnc(C3CC3)nc2)c1)C12CC(F)(C1)C2` [Example 466, N-(3-(2-cyclopropylpyrimidin-5-yl)phenyl)-N-((4-(3-(difluoromethyl)-1,2,4-oxadiazol-5-yl)bicyclo[2.2.2]octan-1-yl)methyl)-3-fluorobicyclo[1.1.1]pentane-1-carboxamide] gave an EC50 of 349 nM.

The values above are taken from patent publication US11254663B2 (BRISTOL-MYERS SQUIBB COMPANY, priority 2019, dated 2022).
